From patent US11548870B2, “Compounds useful as inhibitors of helios protein” (Bristol-Myers Squibb Company, priority 2019, dated 2023)
Several values for one entry are separate records, joined by “and”; a condition that tells them apart may be missing. Equal values may be shown once.

Assays:
[1] = biological target: T1, Ikaros (Homo sapiens, UniProt Q13422); assay: Helios Cellular Degradation Assay, Ikaros readout (flow cytometry, Ikaros-Alexa488 antibody staining, 72 h); type: cell-based; conditions: Jurkat cells, 72 h incubation, flow cytometry; for Dmax: Jurkat, read-out: Ikaros Dmax
T1 construct: fluorescently labelled antibodies against Helios and Ikaros; endogenous in cells; host or cells: Jurkat cells
Summary of the method: (§1)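 Jurkat cells (80,000/well, RPMI+10% FBS) were exposed to compound for 72 h at 37 °C, then fixed, permeabilized and co-stained for 1 h with Ikaros-Alexa488 and Helios-PE antibodies. Intracellular protein levels were read by flow cytometry.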

[2] = biological target: T2, Helios (Homo sapiens, UniProt Q96SW2+Q9UKS7); assay: Helios Cellular Degradation Assay (flow cytometry, Helios-PE antibody staining, 72 h); type: cell-based; conditions: Jurkat cells, 72 h incubation, flow cytometry; for Dmax: Jurkat, read-out: Helios Dmax
T2 construct: fluorescently labelled antibodies against Helios and Ikaros; endogenous in cells; host or cells: Jurkat cells
Summary of the method: as §1

T1 sequence (Q96SW2 whole entry partner): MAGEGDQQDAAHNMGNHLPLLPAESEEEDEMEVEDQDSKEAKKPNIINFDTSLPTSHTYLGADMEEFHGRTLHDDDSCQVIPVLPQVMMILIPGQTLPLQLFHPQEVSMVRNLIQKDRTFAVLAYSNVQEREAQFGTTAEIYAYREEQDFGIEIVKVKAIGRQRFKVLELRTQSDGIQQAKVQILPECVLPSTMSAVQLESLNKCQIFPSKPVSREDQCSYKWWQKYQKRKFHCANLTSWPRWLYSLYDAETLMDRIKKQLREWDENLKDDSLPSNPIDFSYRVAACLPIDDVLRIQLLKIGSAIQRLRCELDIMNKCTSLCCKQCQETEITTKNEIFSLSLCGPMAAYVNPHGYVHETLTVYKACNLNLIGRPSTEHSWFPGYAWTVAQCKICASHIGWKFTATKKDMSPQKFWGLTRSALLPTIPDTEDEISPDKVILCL
T1 sequence (Q16531 whole entry partner): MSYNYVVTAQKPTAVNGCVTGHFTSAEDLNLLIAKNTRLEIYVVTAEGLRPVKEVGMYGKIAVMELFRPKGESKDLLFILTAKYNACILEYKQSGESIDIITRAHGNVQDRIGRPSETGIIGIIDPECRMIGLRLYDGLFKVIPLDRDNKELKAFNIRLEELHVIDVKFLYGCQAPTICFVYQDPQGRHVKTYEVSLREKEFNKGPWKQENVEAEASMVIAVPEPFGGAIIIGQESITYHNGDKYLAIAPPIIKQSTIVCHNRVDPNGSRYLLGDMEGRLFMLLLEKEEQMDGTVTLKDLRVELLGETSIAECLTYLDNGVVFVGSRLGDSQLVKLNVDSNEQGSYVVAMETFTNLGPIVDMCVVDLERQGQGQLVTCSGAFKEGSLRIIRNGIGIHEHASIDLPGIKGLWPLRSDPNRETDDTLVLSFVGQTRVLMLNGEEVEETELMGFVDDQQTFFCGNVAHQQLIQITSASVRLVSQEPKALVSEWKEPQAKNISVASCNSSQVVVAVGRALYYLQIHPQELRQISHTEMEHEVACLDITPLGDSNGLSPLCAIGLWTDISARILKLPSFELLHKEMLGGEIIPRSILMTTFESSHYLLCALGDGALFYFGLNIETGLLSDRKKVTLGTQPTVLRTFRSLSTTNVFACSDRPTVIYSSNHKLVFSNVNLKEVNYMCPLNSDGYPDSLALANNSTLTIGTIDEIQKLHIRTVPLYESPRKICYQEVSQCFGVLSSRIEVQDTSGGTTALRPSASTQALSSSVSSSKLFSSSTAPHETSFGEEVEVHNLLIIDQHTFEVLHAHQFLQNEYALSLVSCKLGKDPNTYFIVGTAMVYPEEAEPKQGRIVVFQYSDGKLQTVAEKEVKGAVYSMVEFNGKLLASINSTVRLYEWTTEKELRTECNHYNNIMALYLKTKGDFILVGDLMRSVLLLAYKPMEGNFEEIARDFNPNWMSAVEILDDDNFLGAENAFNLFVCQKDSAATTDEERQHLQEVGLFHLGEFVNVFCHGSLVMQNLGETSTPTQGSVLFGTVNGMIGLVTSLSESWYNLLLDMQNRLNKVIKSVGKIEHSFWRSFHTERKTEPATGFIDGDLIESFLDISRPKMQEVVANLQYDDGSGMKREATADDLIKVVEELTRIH
T1 sequence (Q13422 whole entry): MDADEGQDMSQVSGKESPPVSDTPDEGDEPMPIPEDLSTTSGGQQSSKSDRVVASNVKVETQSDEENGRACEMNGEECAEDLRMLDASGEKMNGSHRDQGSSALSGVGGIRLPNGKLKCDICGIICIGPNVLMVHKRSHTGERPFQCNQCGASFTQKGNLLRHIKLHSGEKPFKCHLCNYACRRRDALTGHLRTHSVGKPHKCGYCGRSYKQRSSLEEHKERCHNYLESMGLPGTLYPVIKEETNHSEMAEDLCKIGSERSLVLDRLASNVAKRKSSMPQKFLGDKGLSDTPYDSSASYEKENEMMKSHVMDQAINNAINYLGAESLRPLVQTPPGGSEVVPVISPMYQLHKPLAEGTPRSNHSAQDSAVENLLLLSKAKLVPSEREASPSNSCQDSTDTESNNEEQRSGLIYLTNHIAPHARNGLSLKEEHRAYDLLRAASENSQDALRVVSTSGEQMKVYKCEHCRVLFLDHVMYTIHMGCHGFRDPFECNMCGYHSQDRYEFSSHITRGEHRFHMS
T2 sequence (Q9UKS7 whole entry): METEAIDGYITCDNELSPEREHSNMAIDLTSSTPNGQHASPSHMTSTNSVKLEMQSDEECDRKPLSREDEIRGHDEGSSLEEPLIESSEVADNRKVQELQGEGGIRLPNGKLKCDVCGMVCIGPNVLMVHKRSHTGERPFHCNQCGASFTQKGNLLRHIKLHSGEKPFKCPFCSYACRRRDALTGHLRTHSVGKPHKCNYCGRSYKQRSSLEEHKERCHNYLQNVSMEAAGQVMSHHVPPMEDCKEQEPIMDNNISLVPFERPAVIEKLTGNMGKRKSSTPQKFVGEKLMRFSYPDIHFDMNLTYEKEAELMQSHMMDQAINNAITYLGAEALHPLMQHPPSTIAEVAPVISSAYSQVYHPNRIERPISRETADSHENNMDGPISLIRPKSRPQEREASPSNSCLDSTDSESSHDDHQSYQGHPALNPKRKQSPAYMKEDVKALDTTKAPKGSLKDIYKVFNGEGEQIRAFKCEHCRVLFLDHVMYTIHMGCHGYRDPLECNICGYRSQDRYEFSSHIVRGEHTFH
T2 sequence (Q96SW2 whole entry): as the sequence (Q96SW2 whole entry partner) above
T2 sequence (Q16531 whole entry partner): as the sequence (Q16531 whole entry partner) above

CN(Cc1ccnc(-c2ccc3c(c2)CN(C2CCC(=O)NC2=O)C3=O)c1)CC1CCCC1 (centres unmarked) [Example 175, 3-(5-(4-(((cyclopentylmethyl)(methyl)amino)methyl)pyridin-2-yl)-1-oxoisoindolin-2-yl) piperidine-2,6-dione]
DC50 [1]: > 10 µM | Dmax [1]: 7% | DC50 [2]: 0.078 µM | Dmax [2]: 78%

CN(Cc1ccnc(-c2ccc3c(c2)CN(C2CCC(=O)NC2=O)C3=O)c1)Cc1nccs1 (centres unmarked) [Example 176, 3-(5-(4-((methyl(thiazol-2-ylmethyl)amino)methyl)pyridin-2-yl)-1-oxoisoindolin-2-yl)piperidine-2,6-dione]
DC50 [1]: > 10 µM | Dmax [1]: 30% | DC50 [2]: 1.12 µM | Dmax [2]: 65%

CN(Cc1ccc(-n2ccnc2)cc1)Cc1ccnc(-c2ccc3c(c2)CN(C2CCC(=O)NC2=O)C3=O)c1 (centres unmarked) [Example 177, 3-(5-(4-(((4-(1H-imidazol-1-yl)benzyl)(methyl)amino)methyl)pyridin-2-yl)-1-oxoisoindolin-2-yl)piperidine-2,6-dione]
DC50 [1]: > 10 µM | Dmax [1]: 12% | DC50 [2]: > 10 µM | Dmax [2]: 43%

CC(C)CN(C)Cc1ccnc(-c2ccc3c(c2)CN(C2CCC(=O)NC2=O)C3=O)c1 (centres unmarked) [Example 179, 3-(5-(4-((isobutyl(methyl)amino)methyl)pyridin-2-yl)-1-oxoisoindolin-2-yl)piperidine-2,6-dione]
DC50 [1]: > 10 µM | Dmax [1]: 4% | DC50 [2]: 0.212 µM | Dmax [2]: 78%

CC(C)CCN(C)Cc1ccnc(-c2ccc3c(c2)CN(C2CCC(=O)NC2=O)C3=O)c1 (centres unmarked) [Example 180, 3-(5-(4-((isopentyl(methyl)amino)methyl)pyridin-2-yl)-1-oxoisoindolin-2-yl)piperidine-2,6-dione]
DC50 [1]: > 10 µM | Dmax [1]: 13% | DC50 [2]: 0.352 µM | Dmax [2]: 87%

CC(CO)N(C)Cc1ccnc(-c2ccc3c(c2)CN(C2CCC(=O)NC2=O)C3=O)c1 (centres unmarked) [Example 181, 3-(5-(4-(((1-hydroxypropan-2-yl)(methyl)amino)methyl)pyridin-2-yl)-1-oxoisoindolin-2-yl) piperidine-2,6-dione]
DC50 [1]: > 10 µM | Dmax [1]: 10% | DC50 [2]: 0.499 µM | Dmax [2]: 83%

CN(Cc1ccnc(-c2ccc3c(c2)CN(C2CCC(=O)NC2=O)C3=O)c1)CC1CCOC1 (centres unmarked) [Example 182, 3-(5-(4-((methyl((tetrahydrofuran-3-yl)methyl)amino)methyl)pyridin-2-yl)-1-oxoisoindolin-2-yl)piperidine-2,6-dione]
DC50 [1]: > 10 µM | Dmax [1]: 23% | DC50 [2]: 0.316 µM | Dmax [2]: 79%

CN(Cc1ccnc(-c2ccc3c(c2)CN(C2CCC(=O)NC2=O)C3=O)c1)Cc1cnc2ccccc2n1 (centres unmarked) [Example 183, 3-(5-(4-((methyl (quinoxalin-2-ylmethyl)amino)methyl)pyridin-2-yl)-1-oxoisoindolin-2-yl)piperidine-2,6-dione]
DC50 [1]: > 10 µM | Dmax [1]: 10% | DC50 [2]: 0.167 µM | Dmax [2]: 76%

CN(CCC(F)(F)F)Cc1ccnc(-c2ccc3c(c2)CN(C2CCC(=O)NC2=O)C3=O)c1 (centres unmarked) [Example 184, 3-(5-(4-((methyl(3,3,3-trifluoropropyl)amino)methyl)pyridin-2-yl)-1-oxoisoindolin-2-yl)piperidine-2,6-dione]
DC50 [1]: > 10 µM | Dmax [1]: 14% | DC50 [2]: 6.05 µM | Dmax [2]: 54%

CC(CCO)N(C)Cc1ccnc(-c2ccc3c(c2)CN(C2CCC(=O)NC2=O)C3=O)c1 (centres unmarked) [Example 185, 3-(5-(4-(((4-hydroxybutan-2-yl)(methyl)amino)methyl)pyridin-2-yl)-1-oxoisoindolin-2-yl)piperidine-2,6-dione]
DC50 [1]: > 10 µM | Dmax [1]: 2% | DC50 [2]: 0.421 µM | Dmax [2]: 62%

O=C1CCC(N2Cc3cc(-c4cc(CN5CC(c6ccccc6)C5)c(Cl)cn4)ccc3C2=O)C(=O)N1 (centres unmarked) [Example 186, 3-(5-(5-chloro-4-((3-phenylazetidin-1-yl)methyl)pyridin-2-yl)-1-oxoisoindolin-2-yl)piperidine-2,6-dione]
DC50 [1]: > 10 µM | Dmax [1]: 8% | DC50 [2]: 0.23 µM | Dmax [2]: 62%

O=C1CCC(N2Cc3cc(-c4cc(CN5CCC5c5ccccc5)c(Cl)cn4)ccc3C2=O)C(=O)N1 (centres unmarked) [Example 187, 3-(5-(5-chloro-4-((2-phenylazetidin-1-yl)methyl)pyridin-2-yl)-1-oxoisoindolin-2-yl)piperidine-2,6-dione]
DC50 [1]: > 10 µM | Dmax [1]: 6% | DC50 [2]: 0.024 µM | Dmax [2]: 84%

O=C1CCC(N2Cc3cc(-c4cc(CN5CC(c6ccccc6)C5)c(F)cn4)ccc3C2=O)C(=O)N1 (centres unmarked) [Example 188, 3-(5-(5-fluoro-4-((3-phenylazetidin-1-yl)methyl)pyridin-2-yl)-1-oxoisoindolin-2-yl) piperidine-2,6-dione]
Dmax [1]: 16% | DC50 [2]: 0.027 µM | Dmax [2]: 76%

O=C1CCC(N2Cc3cc(-c4cc(CN5CCC5c5ccccc5)c(F)cn4)ccc3C2=O)C(=O)N1 (centres unmarked) [Example 189, 3-(5-(5-fluoro-4-((2-phenylazetidin-1-yl)methyl)pyridin-2-yl)-1-oxoisoindolin-2-yl)piperidine-2,6-dione]
DC50 [1]: > 10 µM | Dmax [1]: 16% | DC50 [2]: 0.011 µM | Dmax [2]: 80%

O=C1CCC(N2Cc3cc(-c4cc(CN5CC(c6cccnc6)C5)c(F)cn4)ccc3C2=O)C(=O)N1 (centres unmarked) [Example 190, 3-(5-(5-fluoro-4-((3-(pyridin-3-yl)azetidin-1-yl)methyl)pyridin-2-yl)-1-oxoisoindolin-2-yl) piperidine-2,6-dione]
DC50 [1]: > 10 µM | Dmax [1]: 16% | DC50 [2]: 0.076 µM | Dmax [2]: 71%

O=C1CCC(N2Cc3cc(-c4nccc(CN5CC(c6ccccc6)C5)c4F)ccc3C2=O)C(=O)N1 (centres unmarked) [Example 191, 3-(5-(3-fluoro-4-((3-phenylazetidin-1-yl)methyl)pyridin-2-yl)-1-oxoisoindolin-2-yl) piperidine-2,6-dione]
DC50 [1]: > 10 µM | Dmax [1]: 3% | DC50 [2]: 3.2 µM | Dmax [2]: 52%

O=C1CCC(N2Cc3cc(-c4nccc(CN5CC(c6cccnc6)C5)c4F)ccc3C2=O)C(=O)N1 (centres unmarked) [Example 192, 3-(5-(3-fluoro-4-((3-(pyridin-3-yl)azetidin-1-yl)methyl)pyridin-2-yl)-1-oxoisoindolin-2-yl)piperidine-2,6-dione]
DC50 [1]: > 10 µM | Dmax [1]: 16% | DC50 [2]: > 10 µM | Dmax [2]: 41%

O=C1CCC(N2Cc3cc(-c4nccc(CN5CCC5c5ccccc5)c4F)ccc3C2=O)C(=O)N1 (centres unmarked) [Example 193, 3-(5-(3-fluoro-4-((2-phenylazetidin-1-yl)methyl)pyridin-2-yl)-1-oxoisoindolin-2-yl) piperidine-2,6-dione]
DC50 [1]: > 10 µM | Dmax [1]: 14% | DC50 [2]: 0.12 µM | Dmax [2]: 60%

Cc1cc2c(cc1-c1cc(CN(C)C)ccn1)CN(C1CCC(=O)NC1=O)C2=O (centres unmarked) [Example 194, 3-(5-(4-((dimethylamino)methyl)pyridin-2-yl)-6-methyl-1-oxoisoindolin-2-yl)piperidine-2,6-dione]
DC50 [1]: > 10 µM | Ikaros Dmax [1]: 0.04% and 3% | DC50 [2]: > 10 µM | Helios Dmax [2]: 5.2% | Dmax [2]: 5.16%

COC1(C)CN(Cc2ccnc(-c3ccc4c(c3)CN(C3CCC(=O)NC3=O)C4=O)c2)C1 (centres unmarked) [Example 196, 3-(5-(4-((3-methoxy-3-methylazetidin-1-yl)methyl)pyridin-2-yl)-1-oxoisoindolin-2-yl)piperidine-2,6-dione]
DC50 [1]: > 10 µM | Dmax [1]: 7% | DC50 [2]: 0.045 µM | Dmax [2]: 78%

COC1CN(Cc2ccnc(-c3ccc4c(c3)CN(C3CCC(=O)NC3=O)C4=O)c2)C1 (centres unmarked) [Example 197, 3-(5-(4-((3-methoxyazetidin-1-yl)methyl)pyridin-2-yl)-1-oxoisoindolin-2-yl)piperidine-2,6-dione]
DC50 [1]: > 10 µM | Dmax [1]: 20% | DC50 [2]: 0.042 µM | Dmax [2]: 75%

CCOC1CN(Cc2ccnc(-c3ccc4c(c3)CN(C3CCC(=O)NC3=O)C4=O)c2)C1 (centres unmarked) [Example 198, 3-(5-(4-((3-ethoxyazetidin-1-yl)methyl)pyridin-2-yl)-1-oxoisoindolin-2-yl) piperidine-2,6-dione]
DC50 [1]: > 10 µM | Dmax [1]: 18% | DC50 [2]: 0.042 µM | Dmax [2]: 75%

Cc1ccc(C2CCN(Cc3ccnc(-c4ccc5c(c4)CN(C4CCC(=O)NC4=O)C5=O)c3)CC2)cc1 (centres unmarked) [Example 199, 3-(1-oxo-5-(4-((4-(p-tolyl)piperidin-1-yl)methyl)pyridin-2-yl)isoindolin-2-yl)piperidine-2,6-dione]
DC50 [1]: > 10 µM | Dmax [1]: 3% | DC50 [2]: 0.13 µM | Dmax [2]: 60%

CN(C)C(=O)C1CN(Cc2ccnc(-c3ccc4c(c3)CN(C3CCC(=O)NC3=O)C4=O)c2)C1 (centres unmarked) [Example 202, 1-((2-(2-(2,6-dioxopiperidin-3-yl)-1-oxoisoindolin-5-yl)pyridin-4-yl)methyl)-N,N-dimethylazetidine-3-carboxamide]
DC50 [1]: > 10 µM | Dmax [1]: 22% | DC50 [2]: 0.19 µM | Dmax [2]: 69%

O=C1CCC(N2Cc3cc(-c4cc(CN5CC(c6cccnc6)C5)ccn4)ccc3C2=O)C(=O)N1 (centres unmarked) [Example 203, 3-(1-oxo-5-(4-((3-(pyridin-3-yl)azetidin-1-yl)methyl)pyridin-2-yl)isoindolin-2-yl)piperidine-2,6-dione]
DC50 [1]: > 10 µM | Dmax [1]: 20% | DC50 [2]: 0.44 µM | Dmax [2]: 69%

NC(=O)C1CCN1Cc1ccnc(-c2ccc3c(c2)CN(C2CCC(=O)NC2=O)C3=O)c1 (centres unmarked) [Example 206, 1-((2-(2-(2,6-dioxopiperidin-3-yl)-1-oxoisoindolin-5-yl)pyridin-4-yl)methyl)azetidine-2-carboxamide]
DC50 [1]: > 10 µM | Dmax [1]: 9% | DC50 [2]: 0.74 µM | Dmax [2]: 66%
